# Read-outs that look alike come from different tables or passages of the source.
# Columns and labels:
# HEK295 cells = details: for Main test: maximum Euclidian distance: NIR, plateau value of curve fit
# Excerpt: The subject of the investigation was: • HEK295 cells, provided by Microbify, in a concentration of 2.2*10^5 cells/ml in medium, grown confluently, i.e. adherently grown cells that have formed a continuous monolayer/cell layer, in the NIR measuring vessels with transflectance stamp made of stainless steel from BrukerOptics • Use of nutrient medium DMEM (Dulbecco's Modified Eagle's Medium), with high glucose content, HEPES buffer, without phenol red indicator. Medium was purchased ready-to-use from ThermoFisher, catalog number 21063045, and mixed with 10% fetal calf serum (v/v) and 1% penicillin-streptomycin solution (v/v). • Cell culture for 48 hours before measurement directly in the measuring vessel • Addition of several concentrations of ethanol: 0% (control), 3%, 6% (each v/v). […] Before the experiment began, the cells were confluent, i.e. 100% viable • Measurement of cell changes via NIR over a period of […]
# The measuring instrument used was a near-infrared spectroscopy device microPHAZIR GP (Thermo Fisher Scientific Inc.) with a wave number range: 6266 cm^−1 to 4172 cm^−1
# Data pretreatment of the NIR spectra: No special pretreatment was carried out, spectra were processed directly.
# The following calculation parameters were chosen: Euclidean distance
# The cells were removed from the incubator and treated with a chemical stress factor (ethanol) at the concentrations mentioned. Three independent replicates were prepared with 0%, 3% and 6% ethanol and in a narrow measured at intervals of time (every 2 minutes) over a total period of 6 hours via NIR.
# From the measured spectra, the Euclidean distances were calculated according to the method of the invention, averaged per measurement time and the fitting of kinetic curves (cf. Application example 3; identical procedure). […] The data points are the mean values of 3 independent replicates, each measured 3 times, thus there are 9 measurement points per point. The error bars are the standard error of the mean. Also shown are the determination points for Km (time at which 50% of the plateau value was reached), K90 (time at which 90% of the plateau value was reached), and K95 (time at which 95% of the plateau value was reached).
# in vitro = details: human, HEK295 cells
smiles,measurement,setting,value
CCO [ethanol],Km (time at which 50% of the plateau value was reached),HEK295 cells; 3% EtOH,~ 13 min
same,Main test: maximum Euclidian distance,HEK295 cells; 3% ethanol (v/v),0.194
same,Km (time at which 50% of the plateau value was reached),HEK295 cells; 6% EtOH,~ 11 min
same,Main test: maximum Euclidian distance,HEK295 cells; 6% ethanol (v/v),0.272
same,viability at 2.5 % ethanol,in vitro,68%
same,viability at 3 % ethanol,in vitro,70.8%
same,viability at 5 % ethanol,in vitro,65.5%
same,viability at 6 % ethanol,in vitro,41.4%
same,viability at 7.5 % ethanol,in vitro,22.5%
same,viability at 10 % ethanol,in vitro,0%

# — patent publication US12712053B2, “Determining the stability of a substance or substance mixture” (BIONORICA SE, priority 2022, dated 2026)
